# Tested on: phosphorylated PKC (pPKC)
# Assay: Mouse enteroid experiment, pPKC Western blot
# Format: cell-based
# Conditions: DGK inhibitor 2 μM in the presence of wild-type L. reuteri PTA-6475 conditioned media, 45 min
# Protocol: FIGS. 5a and 5b illustrate that a commercially available DagK inhibitor (DGK inhi) prevents L. reuteri derived-DagK mediated protein kinase C (PKC) phosphorylation in mouse enteroids. FIG. 5a illustrates a Western blot analysis showing proteins isolated from mouse ileal enteroids of 10 week-old germ free (GF) male mice treated with only media control (LDM-4), WT Lr (WT Lr grown in LDM4), DagK inhibitor and DagK inhibitor with WT Lr for 45 min targeting mammalian phosphorylated PKC (pPKC). 10 μg proteins were loaded into each well of an SDS gel. The pPKC synthesis ratio was obtained by image-J analysis where pPKC of […] was set to 1 and used as baseline. FIG. 5b Mean values of n=3 showing pPKC protein concentration (loaded 10 μg) and quantified by densitometry using image-J. GF control groups were set to 1. *P<0.05, **P<0.01, ***P<0.001. n=10 mice per group. One-Way analysis of variance with Bonferroni correction.
# Mouse enteroids (contains only intestinal epithelial layer) were derived from 10 week-old germ free (GF) BALB/c mouse. The enteroids were grown to form a monolayer and were induced with LDM4 media (control), wild-type L. reuteri PTA-6475 conditioned media (50 to 3 kDa cut off), diacylglycerol kinase (DGK) inhibitor (2 μM) only or DGK inhibitor (2 μM) with wild-type L. reuteri PTA-6475 conditioned media (CM; 50 to 3 kDa cut off). […]
compound,measurement,value
"Cc1nc2sccn2c(=O)c1CCN1CCC(=C(c2ccccc2)c2ccc(F)cc2)CC1 [DGK inhibitor, 6-[2-(4-[(4-fluorophenyl)phenylmethylene]-1-piperidinyl)ethyl]-7-methyl-5H-thiazolo-[3,2-a]pyrimidine-5-one]",PKC phosphorylation,increased PKC phosphorylation

# Source: patent publication US12201656B2, “Selection of bacterial strains useful in allergy treatment” (BioGaia AB, priority 2016, dated 2025)
